Here are results for 23 molecules from patent US6573274B1, “Sulfonamide compounds and uses thereof as medicines” (Fujisawa Pharmaceutical Co. Ltd., priority 1998, dated 2003).

Structures can show the parent of a compound that is named as a salt.

A word on the melting point: it is the temperature, or range, at which the solid turns liquid. `CCCCCS(=O)(=O)NC(=O)c1ccc2nc(C)n(Cc3ccc(OC)cc3Cl)c2n1` [Example 5, 3-(2-chloro-4-methoxybenzyl)-2-methyl-5-(1-pentanesulfonylcarbamoyl)-3H-imidazo[4,5-b]pyridine] yielded a melting point of 188 to 189 °C.

`CCCCCS(=O)(=O)NC(=O)c1cc(C)c2nc(C)n(Cc3ccc(N(CC)C(=O)OC(C)(C)C)cc3Cl)c2n1` [Example 81, 3-[4-(N-(tert-butoxycarbonyl)-N-ethylamino)-2-chlorobenzyl]-2,7-dimethyl-5-(1-pentanesulfonylcarbamoyl)-3H-imidazo[4,5-b]pyridine] displayed a melting point of 190 to 191 °C.

`CCCCCS(=O)(=O)NC(=O)c1ccc2nc(C)n(Cc3ncc(NC(=O)OC(C)(C)C)cc3Cl)c2n1` [Example 129, 3-[(5-(N-(tert-butoxycarbonyl)amino)-3-chloropyridin-2-yl)methyl]-2-methyl-5-(1-pentanesulfonylcarbamoyl)-3H-imidazo[4,5-b]pyridine] showed a melting point of 193 to 194 °C.

Take `CCCCCS(=O)(=O)NC(=O)c1ccc2nc(C)n(Cc3ccc(NC(=O)OC(C)C)cc3Cl)c2n1` [Example 108, 3-(4-(N-(isopropoxycarbonyl)amino)-2-chlorobenzyl)-2-methyl-5-(1-pentanesulfonylcarbamoyl)-3H-imidazo[4,5-b]pyridine]: the melting point was in the range of 198 to 199 °C.

`CCCCCS(=O)(=O)NC(=O)c1ccc2nc(C)n(Cc3ccc(N(C)C(=O)OCc4ccccc4)cc3Cl)c2n1` [Example 146, 3-(4-(N-(benzyloxycarbonyl)-N-methylamino)-2-chlorobenzyl)-2-methyl-5-(1-pentanesulfonylcarbamoyl)-3H-imidazo[4,5-b]pyridine] displayed a melting point of 120 to 121 °C.

Consider `CCCCCS(=O)(=O)NC(=O)c1ccc2nc(C)n(Cc3ccc(-c4ccco4)cc3Cl)c2n1` [Example 70, 3-[2-chloro-4-(2-furyl)benzyl]-2-methyl-5-(1-pentanesulfonylcarbamoyl)-3H-imidazo[4,5-b]pyridine], for which the melting point lay within 184 to 185 °C.

`CCC/C=C/S(=O)(=O)NC(=O)c1ccc2nc(C)n(Cc3ncc(NC(=O)OC(C)(C)C)cc3Cl)c2n1` (as salt: sodium) [Example 130, 3-[(5-(N-(tert-butoxycarbonyl)amino)-3-chloropyridin-2-yl)methyl]-2-methyl-5-((E)-1-penten-1-ylsulfonylcarbamoyl)-3H-imidazo[4,5-b]pyridine] gave a melting point of 202 to 204 °C.

In turn, `CCCCOc1ccc(Cn2c(C)nc3ccc(C(=O)NS(=O)(=O)CCCC)nc32)c(Cl)c1` [Example 18, 5-(1-butanesulfonylcarbamoyl)-3-(2-chloro-4-(1-butoxy)benzyl)-2-methyl-3H-imidazo[4,5-b]pyridine] displayed a melting point of 144 to 145 °C.

Take `CCCCCS(=O)(=O)NC(=O)c1ccc2nc(C)n(Cc3ccc(N(C)C(=O)OC(C)C)cc3Cl)c2n1` [Example 96, 3-(2-chloro-4-(N-methyl-N-(isopropoxycarbonyl)amino)benzyl)-2-methyl-5-(1-pentanesulfonylcarbamoyl)-3H-imidazo[4,5-b]pyridine]: the melting point was in the range of 151 to 152 °C.

In turn, `CCC/C=C/S(=O)(=O)NC(=O)c1ccc2nc(C)n(Cc3ccc(NC(=O)OC(C)C)cc3Cl)c2n1` [Example 102, 3-(2-chloro-4-(N-(isopropoxycarbonyl)amino)benzyl)-2-methyl-5-((E)-1-penten-1-ylsulfonylcarbamoyl)-3H-imidazo[4,5-b]pyridine] yielded a melting point of 187 to 189 °C.

`CCCCNS(=O)(=O)NC(=O)c1ccc2nc(C)n(Cc3ccc(OCC)cc3Cl)c2n1` [Example 11, 5-((1-butylaminosulfonyl)carbamoyl)-3-(2-chloro-4-ethoxybenzyl)-2-methyl-3H-imidazo[4,5-b]pyridine] had a melting point of 175 to 177 °C.

As to `CCCCCS(=O)(=O)NC(=O)c1ccc2nc(C)n(Cc3ccc(OCC)cc3Cl)c2n1` [Example 8, 3-(2-chloro-4-ethoxybenzyl)-2-methyl-5-(1-pentanesulfonylcarbamoyl)-3H-imidazo[4,5-b]pyridine], the melting point lay in the range of 165 to 166 °C.

`CCCCCS(=O)(=O)NC(=O)c1ccc2nc(C)n(Cc3ccc(N(C)C(=O)OC(C)(C)C)cc3Cl)c2n1.[Na]` showed a melting point of 231 to 233 °C.

`CCCCS(=O)(=O)NC(=O)c1cc(C)c2nc(C)n(Cc3ccc(-c4ccco4)cc3Cl)c2n1` [Example 88, 3-[2-chloro-4-(2-furyl)benzyl]-2,7-dimethyl-5-(1-butanesulfonylcarbamoyl)-3H-imidazo[4,5-b]pyridine] showed a melting point of 231 to 233 °C.

Molecule `CCCCCS(=O)(=O)NC(=O)c1ccc2nc(C)n(Cc3ccc(NC(=O)OC(C)(C)C)cc3Cl)c2n1` [Example 97, 3-(4-(N-(tert-butoxycarbonyl)amino)-2-chlorobenzyl)-2-methyl-5-(1-pentanesulfonylcarbamoyl)-3H-imidazo[4,5-b]pyridine] returned a melting point of 222 to 224 °C.

The molecule `CCCCCOc1ccc(Cn2c(C)nc3ccc(C(=O)NS(=O)(=O)c4ccc(Br)s4)nc32)c(Cl)c1` [Example 23, 5-[(5-bromothiophen-2-yl)sulfonylcarbamoyl]-3-[2-chloro-4-(1-pentyloxy)benzyl]-2-methyl-3H-imidazo[4,5-b]pyridine] showed a melting point of 156 to 157 °C.

With `CCCCCS(=O)(=O)NC(=O)c1ccc2nc(C)n(Cc3ccc(N(C)C(=O)C(C)(C)C)cc3Cl)c2n1` [Example 64, 3-(2-chloro-4-(methyl(pivaloyl)amino)benzyl)-2-methyl-5-(1-pentanesulfonylcarbamoyl)-3H-imidazo[4,5-b]pyridine], the melting point fell in the range of 207 to 208 °C.

Molecule `CCC/C=C/S(=O)(=O)NC(=O)c1ccc2nc(C)n(Cc3ccc(NC(=O)OCC)cc3Cl)c2n1` [Example 114, 3-(4-ethoxycarbonylamino-2-chlorobenzyl)-2-methyl-5-((E)-1-penten-1-ylsulfonylcarbamoyl)-3H-imidazo[4,5-b]pyridine] registered a melting point of 233 to 234 °C.

The molecule `CCCCCOc1ccc(Cn2c(C)nc3ccc(C(=O)NS(=O)(=O)CCCCC)nc32)c(Cl)c1` [Example 20, 3-(2-chloro-4-(1-pentyloxy)benzyl)-2-methyl-5-(1-pentanesulfonylcarbamoyl)-3H-imidazo[4,5-b]pyridine] had a melting point of 128 to 131 °C.

`CCCCS(=O)(=O)NC(=O)c1ccc2nc(C)n(Cc3ccc(OC(C)C)cc3Cl)c2n1` [Example 15, 5-(1-butanesulfonylcarbamoyl)-3-(2-chloro-4-isopropoxybenzyl)-2-methyl-3H-imidazo-[4,5-b]pyridine] yielded a melting point of 138 to 141 °C.

Molecule `CCCCS(=O)(=O)NC(=O)c1ccc2nc(C)n(Cc3ccc(-c4ccco4)cc3Cl)c2n1` [Example 69, 5-(1-butanesulfonylcarbamoyl)-3-[2-chloro-4-(2-furyl)benzyl]-2-methyl-3H-imidazo[4,5-b]pyridine] came in with a melting point of 208 to 209 °C.

For `CCCCCS(=O)(=O)NC(=O)c1cc(C)c2nc(C)n(Cc3ccc(C#Cc4ccccc4)cc3Cl)c2n1.[Na]`, the melting point was in the range of 175 to 178 °C.

`CCCCCS(=O)(=O)NC(=O)c1cc(C)c2nc(C)n(Cc3ccc(N(C)C(=O)OC(C)(C)C)cc3Cl)c2n1` [Example 77, 3-(4-(N-(tert-butoxycarbonyl)-N-methylamino)-2-chlorobenzyl)-2,7-dimethyl-5-(1-pentanesulfonylcarbamoyl)-3H-imidazo[4,5-b]pyridine] showed a melting point of 193 to 194 °C.
